From the supplement of paper PMC11579375

Assays:
Assay in all cases: area under the viability dose-response curve (AUC) (AUC (arbitrary units, max 500 = no viability loss)); higher = less sensitive (higher viability)
Conditions in all cases: exposure time: 120 h; concentration range: 0.1 nM - 10 µM, 6 doses
96F1 = tested on: 96F1 (fetal-I hepatoblastoma organoid with intermediate liver markers)
Description: (§1)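 Patient-derived hepatoblastoma tumor organoids (about 50 organoids per well, 384-well plates, medium with 5% BME) were treated with the PMC pediatric cancer drug library. Each drug was tested in duplicate at 6 concentrations (0.1 nM to 10 µM, 10-fold steps).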

13E = tested on: 13E (embryonal-type hepatoblastoma organoid)
Description: as §1

135F2 = tested on: 135F2 (fetal-II hepatoblastoma organoid with high liver markers)
Description: as §1

27F1 = tested on: 27F1 (fetal-I hepatoblastoma organoid with intermediate liver markers)
Description: as §1

22E = tested on: 22E (embryonal-type hepatoblastoma organoid)
Description: as §1

17F1 = tested on: 17F1 (fetal-I hepatoblastoma organoid with intermediate liver markers)
Description: as §1

8F1 = tested on: 8F1 (fetal-I hepatoblastoma organoid with intermediate liver markers)
Description: as §1

3E = tested on: 3E (embryonal-type hepatoblastoma organoid)
Description: as §1

13F2 = tested on: 13F2 (fetal-II hepatoblastoma organoid with high liver markers)
Description: as §1

17E = tested on: 17E (embryonal-type hepatoblastoma organoid)
Description: as §1

10F2 = tested on: 10F2 (fetal-II hepatoblastoma organoid with high liver markers)
Description: as §1

Row | SMILES | area under the viability dose-response curve (96F1) | area under the viability dose-response curve (13E) | area under the viability dose-response curve (135F2) | area under the viability dose-response curve (27F1) | area under the viability dose-response curve (22E) | area under the viability dose-response curve (17F1) | area under the viability dose-response curve (8F1) | area under the viability dose-response curve (3E) | area under the viability dose-response curve (13F2) | area under the viability dose-response curve (17E) | area under the viability dose-response curve (10F2)
1 | Cc1c(C(=O)Nc2ccc(N3C[C@@H](C)O[C@@H](C)C3)nc2)cccc1-c1ccc(OC(F)(F)F)cc1 [Sonidegib] | 465 | 485 | 470 | > 500 | 469 | 477 | 477 | 477 | 470 | 466 | 409
2 | C[C@@H]1COCCN1c1cc(C2([S@](C)(=N)=O)CC2)nc(-c2cc[nH]c3nccc2-3)n1 [Ceralasertib] | 450 | 468 | 448 | 479 | 462 | 478 | > 500 | 442 | 450 | 462 | 475
3 | CC[C@H](Nc1nc(NCc2cnc(C)cc2C)c2ncn(C(C)C)c2n1)[C@@H](C)O [CYC065] | 333 | 400 | 387 | 347 | 419 | 366 | 377 | 382 | 328 | 381 | 325
4 | N#CCNC(=O)c1ccc(-c2ccnc(Nc3ccc(N4CCOCC4)cc3)n2)cc1 [Momelotinib] | 465 | 471 | 462 | 496 | 489 | 489 | 479 | 462 | 443 | 444 | 442
5 | O=C(CCCCCCC(=O)Nc1ccccc1)NO [Vorinostat] | 435 | 428 | 408 | 440 | 421 | 437 | 452 | 379 | 400 | 406 | 404
6 | C[C@H](NC(=O)c1c(N)nn2cccnc12)c1cc2cccc(C#Cc3cnn(C)c3)c2c(=O)n1-c1ccccc1 [IPI549] | 459 | 463 | > 500 | > 500 | 477 | > 500 | > 500 | 428 | 479 | 464 | 459
7 | CC1(C)CCC2(CC1)N[C@@H](C(=O)N[C@@H]1CC[C@@H](C(N)=O)OC1)[C@H](c1ccnc(Cl)c1F)[C@]21C(=O)Nc2cc(Cl)ccc21 [Milademetan] | 399 | 370 | 341 | 357 | 406 | 376 | 367 | 313 | 256 | 294 | 268
8 | CC(C)C[C@H](NC(=O)[C@H](Cc1ccccc1)NC(=O)c1cnccn1)B(O)O [Bortezomib] | 210 | 179 | 191 | 200 | 193 | 170 | 207 | 133 | 182 | 173 | 189
9 | O=C(c1ccc(F)c(F)c1Nc1ccc(I)cc1F)N1CC(O)([C@@H]2CCCCN2)C1 [Cobimetinib] | 430 | 429 | 300 | 381 | 448 | 438 | 455 | 372 | 266 | 362 | 220
10 | CNCc1ccc(-c2cc(-c3nc(-c4ccc(S(=O)(=O)C(C)C)cc4)cnc3N)on2)cc1 [Berzosertib] | 459 | 461 | 391 | 498 | 473 | > 500 | 499 | 391 | 401 | 444 | 411
11 | CC(C)c1cc(-c2n[nH]c(=O)n2-c2ccc3c(ccn3C)c2)c(O)cc1O [Ganetespib] | 358 | 269 | 340 | 278 | 345 | 343 | 265 | 265 | 243 | 232 | 236
12 | CC[C@@]1(O)C(=O)OCc2c1cc1n(c2=O)Cc2cc3ccccc3nc2-1 [Camptothecin] | 208 | 304 | 227 | 255 | 361 | 277 | 295 | 201 | 174 | 263 | 219
13 | CO[C@@H]1[C@H](N(C)C(=O)c2ccccc2)C[C@H]2O[C@]1(C)n1c3ccccc3c3c4c(c5c6ccccc6n2c5c31)C(=O)NC4 [Midostaurin] | 431 | 427 | 365 | > 500 | 417 | 442 | 454 | 338 | 335 | 364 | 372
14 | Nc1cc(F)ccc1NC(=O)c1ccc(CNC(=O)/C=C/c2cccnc2)cc1 [Epidaza] | 492 | 448 | 444 | 482 | 461 | 467 | > 500 | 466 | 426 | 437 | 395
15 | COc1cc(Nc2c(C#N)cnc3cc(OCCCN4CCN(C)CC4)c(OC)cc23)c(Cl)cc1Cl [Bosutinib] | 433 | 447 | 459 | 422 | 471 | 469 | 450 | 435 | 397 | 429 | 429
16 | CN(C)C/C=C/C(=O)Nc1ccc(C(=O)N2CCC[C@@H](Nc3ncc(Cl)c(-c4c[nH]c5ccccc45)n3)C2)cc1 [THZ531] | 340 | 360 | 367 | 336 | 320 | 332 | 344 | 263 | 376 | 374 | 332
17 | O=c1cc(-c2cccc3c2Sc2ccccc2S3)oc(N2CCOCC2)c1 | > 500 | 498 | > 500 | > 500 | 497 | > 500 | > 500 | 490 | 500 | 498 | 455

Row | SMILES | area under the viability dose-response curve (96F1) | area under the viability dose-response curve (13E) | area under the viability dose-response curve (135F2) | area under the viability dose-response curve (27F1) | area under the viability dose-response curve (22E) | area under the viability dose-response curve (17F1) | area under the viability dose-response curve (8F1) | area under the viability dose-response curve (3E) | area under the viability dose-response curve (13F2) | area under the viability dose-response curve (17E) | area under the viability dose-response curve (10F2)
18 | CCOC(=O)CCNc1cc(N2CCc3ccccc3CC2)nc(-c2ccccn2)n1 [GSK J4] | 492 | 449 | 468 | > 500 | 476 | 483 | 494 | 445 | 438 | 452 | 493
19 | COCC[n+]1c2c(n(Cc3cnccn3)c1C)C(=O)c1ccccc1C2=O [Sepantronium bromide] | 286 | 337 | 427 | 408 | 316 | 312 | 429 | 241 | 395 | 331 | 348
20 | CN1CCN(c2ccc(C(=O)Nc3n[nH]c4ccc(Cc5cc(F)cc(F)c5)cc34)c(NC3CCOCC3)c2)CC1 [Entrectinib] | 454 | 418 | 438 | 484 | 429 | 448 | 460 | 424 | 418 | 404 | 399
21 | Cn1nccc1Nc1nccc(-c2ccn([C@H](CO)c3ccc(Cl)c(F)c3)c(=O)c2)n1 [Ravoxertinib] | 483 | 470 | 380 | > 500 | 468 | > 500 | > 500 | 494 | 354 | 475 | 331
22 | COc1cccc2c1C(=O)c1c(O)c3c(c(O)c1C2=O)C[C@@](O)(C(=O)CO)C[C@@H]3O[C@H]1C[C@H](N)[C@H](O)[C@H](C)O1 [Doxorubicin] | 311 | 305 | 308 | 333 | 336 | 311 | 384 | 263 | 258 | 278 | 281
23 | NS(=O)(=O)OC[C@@H]1C[C@@H](n2ccc3c(N[C@H]4CCc5ccccc54)ncnc32)C[C@@H]1O [Pevonedistat] | 381 | 451 | 342 | 333 | 470 | 400 | 445 | 448 | 329 | 383 | 425
24 | Cc1c2c(nn1C)CSCc1cc(n(C)n1)CSc1cc(c3ccccc3c1)OCCCc1c(C(=O)O)n(C)c3c-2c(Cl)ccc13 [AZD5991] | > 500 | 403 | 379 | 473 | 400 | 482 | 484 | 310 | 277 | 370 | 190
25 | Nc1ccn([C@@H]2O[C@H](CO)[C@@H](O)C2(F)F)c(=O)n1 [Gemcitabine] | 273 | 339 | 237 | 310 | 331 | 273 | 433 | 241 | 209 | 257 | 212
26 | CCCCCCCCCCCCCCCCCCOP(=O)([O-])OC1CC[N+](C)(C)CC1 [Perifosine] | – | > 500 | – | > 500 | > 500 | > 500 | 482 | > 500 | 480 | 499 | 470
27 | CN(C)C(=N)NC(=N)N [Metformin] | > 500 | > 500 | > 500 | – | > 500 | 482 | – | – | > 500 | > 500 | 469
28 | Cc1c2oc3c(C)ccc(C(=O)N[C@@H]4C(=O)N[C@H](C(C)C)C(=O)N5CCC[C@H]5C(=O)N(C)CC(=O)N(C)[C@@H](C(C)C)C(=O)O[C@@H]4C)c3nc-2c(C(=O)N[C@@H]2C(=O)N[C@H](C(C)C)C(=O)N3CCC[C@H]3C(=O)N(C)CC(=O)N(C)[C@@H](C(C)C)C(=O)O[C@@H]2C)c(N)c1=O [Actinomycin D] | 169 | 205 | 127 | – | 215 | 187 | 222 | 134 | 114 | 150 | 160
29 | COCCOc1cnc2ccn([C@H](C)c3nnc4c(F)cc(-c5cnn(C)c5)cn34)c(=O)c2c1 [AMG 337] | > 500 | 488 | 488 | – | > 500 | 495 | – | – | 483 | 494 | 446
30 | CO[C@@H](C)Cn1c(=O)n(C)c2cnc3ccc(-c4cncc(C(C)(C)O)c4)cc3c21 [Samotolisib] | 406 | 364 | 361 | 424 | – | 446 | 442 | 306 | 334 | 357 | 372
31 | NC(=O)c1cccc2cn(-c3ccc([C@@H]4CCCNC4)cc3)nc12 [Niraparib] | 492 | 472 | 458 | 478 | – | 490 | > 500 | 461 | 455 | 495 | 459
32 | O=C1c2c(O)ccc(O)c2C(=O)c2c(NCCNCCO)ccc(NCCNCCO)c21 [Mitoxantrone] | 313 | 274 | 285 | – | 340 | 319 | 405 | 208 | 222 | 257 | 294
33 | CS(=O)(=O)OCCCCOS(C)(=O)=O [Busulfan] | 485 | 489 | > 500 | – | 490 | > 500 | – | – | > 500 | > 500 | > 500
34 | CC(=O)Nc1cccc(-n2c(=O)n(C3CC3)c(=O)c3c(Nc4ccc(I)cc4F)n(C)c(=O)c(C)c32)c1 [Trametinib] | 418 | 396 | 281 | 380 | – | 428 | > 500 | 331 | 214 | 394 | 172
